According to ChEMBL document CHEMBL4411316, “Design, synthesis and identification of novel coumaperine derivatives for inhibition of human 5-LOX: Antioxidant, pseudoperoxidase and docking studies” (Bioorg Med Chem, 2019):
Activity calls are given as the source filed them. No cut-off for these calls is given here.

Key:
[1] = molecular target: T1, Polyunsaturated fatty acid 5-lipoxygenase (Homo sapiens) (UniProt P09917); assay: Inhibition of recombinant human 5-LOX expressed in Escherichia coli at 20 uM using arachidonic acid as substrate by UV-vis spectrophotometric method relative to control
T1 sequence (whole entry): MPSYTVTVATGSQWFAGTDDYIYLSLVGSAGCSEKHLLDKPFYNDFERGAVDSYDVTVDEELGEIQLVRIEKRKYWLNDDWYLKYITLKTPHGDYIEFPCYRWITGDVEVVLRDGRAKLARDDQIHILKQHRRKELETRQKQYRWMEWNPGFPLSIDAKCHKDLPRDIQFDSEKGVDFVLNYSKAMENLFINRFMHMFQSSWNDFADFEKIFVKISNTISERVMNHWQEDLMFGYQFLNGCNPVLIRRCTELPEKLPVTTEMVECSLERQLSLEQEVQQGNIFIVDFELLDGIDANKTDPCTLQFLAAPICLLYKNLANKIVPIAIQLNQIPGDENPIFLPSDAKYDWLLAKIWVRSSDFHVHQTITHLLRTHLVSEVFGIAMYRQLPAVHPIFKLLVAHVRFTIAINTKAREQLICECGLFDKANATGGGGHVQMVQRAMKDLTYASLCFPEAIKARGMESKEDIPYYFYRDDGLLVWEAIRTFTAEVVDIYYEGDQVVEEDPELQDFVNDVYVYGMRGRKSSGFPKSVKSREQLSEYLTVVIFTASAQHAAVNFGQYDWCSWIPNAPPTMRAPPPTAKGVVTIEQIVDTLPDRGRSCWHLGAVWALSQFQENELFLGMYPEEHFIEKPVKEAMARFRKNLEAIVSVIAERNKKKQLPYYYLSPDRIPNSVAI

[2] = molecular target: T2, Polyunsaturated fatty acid 5-lipoxygenase (Homo sapiens, UniProt P09917); assay: Inhibition of recombinant human 5-LOX expressed in Escherichia coli using arachidonic acid as substrate by UV-vis spectrophotometric method
T2 sequence (P09917 whole entry): T1 sequence (whole entry)

[3] = Antioxidant activity assessed as DPPH radical scavenging activity at 20 uM incubated for 30 mins under dark condition relative to control; format: functional
[4] = molecular target: T1, Polyunsaturated fatty acid 5-lipoxygenase (Homo sapiens); assay: Inhibition of recombinant human 5-LOX pseudoperoxidase activity expressed in Escherichia coli BL21 assessed as compound redox activity by measuring reduction in absorption at 10 uM using 13(S)-HpODE as substrate by UV-vis spectrophotometric method relative to control; design: scale not given: the % may be the effect or the level left
[5] = molecular target: T2, Polyunsaturated fatty acid 5-lipoxygenase; assay: Inhibition of human 5-LOX using arachidonic acid as substrate measured after 10 mins by ELISA

SMILES | inhibition [1] | also measured
O=C(/C=C/C=C/c1cc(O)c(O)c(O)c1)N1CCCCC1 | 82.5% | IC50 [2]: 2.3 µM; Activity [3]: 71.3%; Activity [4]: 50.8%
COc1ccc(/C=C/C=C/C(=O)N2CCCCC2)c(OC)c1OC | 36% | –
COc1cc(/C=C/C=C/C(=O)N2CCCCC2)cc(OC)c1O | 32.7% | –
Oc1cc(O)cc(/C=C/c2ccc(O)cc2O)c1 [OXYRESVERATROL] | – | IC50 [5]: 18.5 µM
COC1=C(OC)C(=O)C(CCCCCCCCCCO)=C(C)C1=O [IDEBENONE] | – | IC50 [5]: > 10 µM
COc1cc(/C=C/C=C/C(=O)N2CCCCC2)cc(OC)c1 | 64.9% | –
O=C1O[C@H]([C@@H](O)CO)C(O)=C1O | – | Activity [3]: 80.1%
O=C(/C=C/C=C/c1ccc(OC2CCCC2)cc1)N1CCCCC1 | 16.1% | –
O=C(/C=C/c1ccc(O)c(O)c1)N1CCCCC1 | 55.2% | –
COc1cc(/C=C/C=C/C(=O)N2CCCCC2)cc(OC)c1OC | 66.7% | –
COc1cc(OC)c(/C=C/C=C/C(=O)N2CCCCC2)c(OC)c1 | 77.1% | Activity [3]: 3.6%; Activity [4]: inactive
COc1cc(/C=C/c2ccc(O)cc2)cc(OC)c1 [PTEROSTILBENE] | – | IC50 [5]: 9.32 µM

Continued, in another order:

inhibition [1] | SMILES | also measured
51.9% | COc1ccc(/C=C/C=C/C(=O)N2CCCCC2)cc1OC | –
82.8% | O=C(/C=C/C=C/c1ccc(O)c(O)c1)N1CCCCC1 | IC50 [2]: 2.1 µM; Activity [3]: 76.8%; Activity [4]: 57.4%
13.4% | CN(C)c1ccc(/C=C/C=C/C(=O)N2CCCCC2)cc1 | –
76% | O=C(/C=C/C=C/C=C/c1ccc2c(c1)OCO2)N1CCCCC1 | Activity [3]: 0.9%; Activity [4]: inactive
39.9% | O=C(/C=C/c1ccc2c(c1)OCO2)N1CCCCC1 | –
11.8% | CSc1ccc(/C=C/C=C/C(=O)N2CCCCC2)cc1 | –
27.4% | CN(C)c1ccc(/C=C/C=C/C=C/C(=O)N2CCCCC2)cc1 | –
30.3% | O=C(/C=C/C=C/C=C/c1ccc(O)c(O)c1)N1CCCCC1 | –
47.5% | O=C(/C=C/C=C/c1ccc2c(c1)OCO2)N1CCCCC1 | –
44.4% | O=C(/C=C/C=C/c1ccc(O)cc1)N1CCCCC1 | –
42.6% | COc1ccc(/C=C/C=C/C(=O)N2CCCCC2)cc1 | –
1.08% | COc1ccc(/C=C/C=C/C=C/C(=O)N2CCCCC2)cc1 | –
48.7% | O=C(/C=C/C=C/c1ccc(F)cc1)N1CCCCC1 | –
14.5% | O=C(/C=C/C=C/c1ccc(Cl)cc1)N1CCCCC1 | –
36.3% | O=C(/C=C/C=C/c1ccccc1)N1CCCCC1 | –
18.3% | CC(=O)Oc1ccc(/C=C/C=C/C(=O)N2CCCCC2)cc1 | –
55.5% | COc1cc(/C=C/C=C/C(=O)N2CCCCC2)ccc1O | –
